Experimental findings from patent publication US20250228239A1, “MOLECULES HAVING PESTICIDAL UTILITY, AND INTERMEDIATES, COMPOSITIONS, AND PROCESSES, RELATED THERETO” (priority 2024, published 2025) are described below.

Read-outs that look alike come from different tables or passages of the source.

Assay [1] concerns Cabbage Looper (Trichoplusia ni, TRIPNI). Put plainly: Bioassays on Cabbage Looper (CL), 128-well diet tray assay. Format: in vivo. Conditions: Trichoplusia ni. The gist of the method: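 Second-instar larvae (1–5 per well) placed on artificial diet surface-treated with 50 μg/cm^2 test molecule applied in 90:10 acetone-water and dried. Held at 25° C., 14:10 light-dark, for five to seven days. Percent mortality scored per well and averaged over eight wells.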

For assay [2], the system named is Beet Armyworm (Spodoptera exigua, LAPHEG). Put plainly: Bioassays on Beet Armyworm (BAW), 128-well diet tray assay. Format: in vivo. Conditions: Spodoptera exigua. The gist of the method: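 Test molecule was dissolved in 90:10 acetone-water and applied at 50 μg/cm^2 onto artificial diet in eight wells, then dried. Second instar larvae, one to five per well, were added, and trays were kept vented at 25° C. with a 14:10 photoperiod for five to seven days before mortality was recorded.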

Setting [3] is: Cabbage Looper, Table ABC / ABC-DP rating, read-out: CL rating.
Where [4] appears, read: Beet Armyworm, Table ABC / ABC-DP rating, read-out: BAW rating.
Where [5] appears, read: Table ABC: Biological Results, species CL, read-out: CL.
[6] abbreviates: Table ABC: Biological Results, species BAW, read-out: BAW.
Setting [7] is: Cabbage Looper, rating class, read-out: CL.
Where [8] appears, read: Beet Armyworm, rating class, read-out: BAW.

Consider `CCNC(=O)c1cc(NC(=O)[C@H]2[C@H](c3ccc(F)c(Cl)c3)C2(Cl)Cl)cc(C(F)(F)F)c1Cl` (relative stereo) [F2053, trans-2-Chloro-5-(2,2-dichloro-3-(3-chloro-4-fluorophenyl)cyclopropane-1-carboxamido)-N-ethyl-3-(trifluoromethyl)benzamide], for which the pest or weed control at 50 µg/cm2 in assay [1] (setting [3]) and in assay [2] (setting [4]) was 50 to 100% each time.

`O=C(Nc1ccc(F)c(NCc2ccc([N+](=O)[O-])cc2)c1F)c1cc(NC(=O)[C@H]2[C@H](c3ccc(F)c(C(F)(F)F)c3)C2(Cl)Cl)ccc1Cl` [F1296, 2-Chloro-5-((1R,3R)-2,2-dichloro-3-(4-fluoro-3-(trifluoromethyl)phenyl)cyclopropane-1-carboxamido)-N-(2,4-difluoro-3-((4-nitrobenzyl)amino)phenyl)benzamide]: the pest or weed control at 50 µg/cm2 in assay [1] (setting [5]) and in assay [2] (setting [6]) was 50 to 100% in each case.

Regarding `O=C(Nc1ccc(F)c(NC(=O)C(F)F)c1F)c1cc(NC(=O)[C@H]2[C@H](c3cc(Cl)cc(Cl)c3)C2(Cl)Cl)ccc1Cl` [F1268, 2-Chloro-5-((1R,3R)-2,2-dichloro-3-(3,5-dichlorophenyl)cyclopropane-1-carboxamido)-N-(3-(2,2-difluoroacetamido)-2,4-difluorophenyl)benzamide], the pest or weed control at 50 µg/cm2 in assay [1] (setting [5]) and in assay [2] (setting [6]) was 50 to 100% throughout.

For `O=C(Nc1ccc(F)c(NC(=O)C2CCCO2)c1F)c1cc(NC(=O)[C@H]2[C@H](c3ccc(F)c(Br)c3)C2(Cl)Cl)ccc1Cl` (stereo partly drawn) [F1714, N-(3-(5-((1R,3R)-3-(3-Bromo-4-fluorophenyl)-2,2-dichlorocyclopropane-1-carboxamido)-2-chlorobenzamido)-2,6-difluorophenyl)tetrahydrofuran-2-carboxamide], the pest or weed control at 50 µg/cm2 in assay [1] (setting [7]) and in assay [2] (setting [8]) was 50 to 100% in each case.

In the case of `O=C(Nc1ccc(F)c(NC(=O)C2(C(F)(F)F)CC2)c1F)c1cc(NC(=O)[C@H]2[C@H](c3ccc(Cl)c(Cl)c3)C2(Cl)Cl)ccc1Cl` [F1662, 2-Chloro-5-((1R,3R)-2,2-dichloro-3-(3,4-dichlorophenyl)cyclopropane-1-carboxamido)-N-(2,4-difluoro-3-(1-(trifluoromethyl)cyclopropane-1-carboxamido)phenyl)benzamide], the pest or weed control at 50 µg/cm2 in assay [1] (setting [7]) and in assay [2] (setting [8]) was 50 to 100% throughout.

Consider `O=C(Nc1ccccc1)c1cc(NC(=O)[C@H]2[C@H](c3ccc(F)c(Cl)c3)C2(Cl)Cl)cc(F)c1F` (relative stereo) [F1207, trans-5-(2,2-Dichloro-3-(3-chloro-4-fluorophenyl)cyclopropane-1-carboxamido)-2,3-difluoro-N-phenylbenzamide], for which the pest or weed control at 50 µg/cm2 in assay [1] (setting [5]) and in assay [2] (setting [6]) was 50 to 100% in each case.

In the case of `O=C(Nc1cc(NC(=O)C(F)(F)F)ccc1F)c1cc(NC(=O)[C@H]2[C@H](c3cc(Cl)cc(Cl)c3)C2(Cl)Cl)ccc1Cl` (relative stereo) [F1640, trans-2-Chloro-5-(2,2-dichloro-3-(3,5-dichlorophenyl)cyclopropane-1-carboxamido)-N-(2-fluoro-5-(2,2,2-trifluoroacetamido)phenyl)benzamide], the pest or weed control at 50 µg/cm2 in assay [1] (setting [7]) and in assay [2] (setting [8]) was 50 to 100% in each case.

For the compound `O=C(CC(F)(F)F)Nc1c(F)ccc(NC(=O)c2cc(NC(=O)[C@H]3[C@H](c4ccc(F)c(Br)c4)C3(Cl)Cl)ccc2Cl)c1F` [F1718, 5-((1R,3R)-3-(3-Bromo-4-fluorophenyl)-2,2-dichlorocyclopropane-1-carboxamido)-2-chloro-N-(2,4-difluoro-3-(3,3,3-trifluoropropanamido)phenyl)benzamide], the pest or weed control at 50 µg/cm2 in assay [1] (setting [7]) and in assay [2] (setting [8]) was 50 to 100% throughout.

As to `O=C(Nc1c(F)ccc(NC(=O)C(F)F)c1F)c1cc(NC(=O)[C@H]2[C@H](c3cc(Cl)cc(Cl)c3)C2(Cl)Cl)cc(F)c1Cl` [F1341, 2-Chloro-5-((1R,3R)-2,2-dichloro-3-(3,5-dichlorophenyl)cyclopropane-1-carboxamido)-N-(3-(2,2-difluoroacetamido)-2,6-difluorophenyl)-3-fluorobenzamide], the pest or weed control at 50 µg/cm2 in assay [1] (setting [5]) and in assay [2] (setting [6]) was 50 to 100% in each case.

As to `Cc1cc(NC(=O)[C@H]2[C@H](c3ccc(Cl)c(Cl)c3)C2(Cl)Cl)cc(C(=O)Nc2ccc(F)c(N)c2F)c1Cl` [F1446, N-(3-Amino-2,4-difluorophenyl)-2-chloro-5-((1R,3R)-2,2-dichloro-3-(3,4-dichlorophenyl)cyclopropane-1-carboxamido)-3-methylbenzamide], the pest or weed control at 50 µg/cm2 in assay [1] (setting [7]) and in assay [2] (setting [8]) was 50 to 100% throughout.

As to `O=C(CCC(F)(F)C(F)(F)F)Nc1c(F)ccc(NC(=O)c2cc(NC(=O)[C@H]3[C@H](c4ccc(Cl)c(Cl)c4)C3(Cl)Cl)ccc2Cl)c1F` [F1861, 2-Chloro-5-((1R,3R)-2,2-dichloro-3-(3,4-dichlorophenyl)cyclopropane-1-carboxamido)-N-(2,4-difluoro-3-(4,4,5,5,5-pentafluoropentanamido)phenyl) benzamide], the pest or weed control at 50 µg/cm2 in assay [1] (setting [3]) and in assay [2] (setting [4]) was 50 to 100% throughout.

In the case of `O=C(NCC(F)(F)C(F)(F)F)c1cc(NC(=O)[C@H]2[C@H](c3ccc(F)c(Cl)c3)C2(Cl)Cl)cc(Cl)c1F` (relative stereo) [F2046, trans-3-Chloro-5-(2,2-dichloro-3-(3-chloro-4-fluorophenyl)cyclopropane-1-carboxamido)-2-fluoro-N-(2,2,3,3,3-pentafluoropropyl)benzamide], the pest or weed control at 50 µg/cm2 in assay [1] (setting [3]) and in assay [2] (setting [4]) was 50 to 100% each time.

On to `Cc1cc(NC(=O)[C@H]2[C@H](c3ccc(Cl)c(Cl)c3)C2(Cl)Cl)cc(C(=O)Nc2cc(N)c(F)cc2F)c1Cl` [F1470, N-(5-Amino-2,4-difluorophenyl)-2-chloro-5-((1R,3R)-2,2-dichloro-3-(3,4-dichlorophenyl)cyclopropane-1-carboxamido)-3-methylbenzamide], for which the pest or weed control at 50 µg/cm2 in assay [1] (setting [7]) and in assay [2] (setting [8]) was 50 to 100% in each case.

On to `Cc1cc(NC(=O)[C@H]2[C@H](c3ccc(F)c(Cl)c3)C2(Cl)Cl)cc(C(=O)Nc2ccc(F)c(N)c2F)c1Cl` (relative stereo) [F1222, trans-N-(3-Amino-2,4-difluorophenyl)-2-chloro-5-(2,2-dichloro-3-(3-chloro-4-fluorophenyl)cyclopropane-1-carboxamido)-3-methylbenzamide], for which the pest or weed control at 50 µg/cm2 in assay [1] (setting [5]) and in assay [2] (setting [6]) was 50 to 100% throughout.

In the case of `O=C(Nc1cc(NC(=O)C(F)(F)F)c(F)cc1F)c1cc(NC(=O)[C@H]2[C@H](c3cc(Cl)cc(Cl)c3)C2(Cl)Cl)cc(F)c1Cl` [F1409, 2-Chloro-5-((1R,3R)-2,2-dichloro-3-(3,5-dichlorophenyl)cyclopropane-1-carboxamido)-N-(2,4-difluoro-5-(2,2,2-trifluoroacetamido)phenyl)-3-fluorobenzamide], the pest or weed control at 50 µg/cm2 in assay [1] (setting [7]) and in assay [2] (setting [8]) was 50 to 100% each time.

For the compound `CN(C(=O)C(F)F)c1c(F)ccc(NC(=O)c2cc(NC(=O)[C@H]3[C@H](c4cc(Cl)cc(Cl)c4)C3(Cl)Cl)ccc2Cl)c1F` [F1462, 2-Chloro-5-((1R,3R)-2,2-dichloro-3-(3,5-dichlorophenyl)cyclopropane-1-carboxamido)-N-(3-(2,2-difluoro-N-methylacetamido)-2,4-difluorophenyl)benzamide], the pest or weed control at 50 µg/cm2 in assay [1] (setting [7]) and in assay [2] (setting [8]) was 50 to 100% throughout.

`Cc1c(Cl)cc(NC(=O)[C@H]2[C@H](c3ccc(F)c(Cl)c3)C2(Cl)Cl)cc1C(=O)Nc1ccc(F)c(N)c1F` (relative stereo) [F1223, trans-N-(3-Amino-2,4-difluorophenyl)-3-chloro-5-(2,2-dichloro-3-(3-chloro-4-fluorophenyl)cyclopropane-1-carboxamido)-2-methylbenzamide]: the pest or weed control at 50 µg/cm2 in assay [1] (setting [5]) and in assay [2] (setting [6]) was 50 to 100% throughout.

As for `CC(=O)Nc1ccc(NC(=O)c2cc(NC(=O)[C@H]3[C@H](c4ccc(F)c(Cl)c4)C3(Cl)Cl)cc(Cl)c2F)cc1` (relative stereo) [F1197, trans-N-(4-Acetamidophenyl)-3-chloro-5-(2,2-dichloro-3-(3-chloro-4-fluorophenyl)cyclopropane-1-carboxamido)-2-fluorobenzamide], the pest or weed control at 50 µg/cm2 in assay [1] (setting [5]) and in assay [2] (setting [6]) was 50 to 100% each time.

Turning to `Nc1c(F)c(F)c(F)c(NC(=O)c2cc(NC(=O)[C@H]3[C@H](c4cc(Cl)cc(Cl)c4)C3(Cl)Cl)ccc2Cl)c1F` (relative stereo) [F1022, trans-N-(3-Amino-2,4,5,6-tetrafluorophenyl)-2-chloro-5-(2,2-dichloro-3-(3,5-dichlorophenyl)cyclopropane-1-carboxamido)benzamide], the pest or weed control at 50 µg/cm2 in assay [1] (setting [5]) and in assay [2] (setting [6]) was 50 to 100% each time.

As to `Cc1cc(NC(=O)[C@H]2[C@H](c3ccc(Cl)c(Cl)c3)C2(Cl)Cl)cc(C(=O)Nc2ccc(F)c(NC(=O)C(F)F)c2F)c1Cl` [F1484, 2-Chloro-5-((1R,3R)-2,2-dichloro-3-(3,4-dichlorophenyl)cyclopropane-1-carboxamido)-N-(3-(2,2-difluoroacetamido)-2,4-difluorophenyl)-3-methylbenzamide], the pest or weed control at 50 µg/cm2 in assay [1] (setting [7]) and in assay [2] (setting [8]) was 50 to 100% in each case.
